Tests used:
mutant trypsinogen mice = assay: Prevention of pancreatitis in mouse model expressing active trypsin (PACE-trypsinogen); assay type: in vivo; conditions: pretreated two hours prior to caerulein and seven hours after final caerulein injection, Dabigatran 200 mg/kg×2, Camostat 300 mg/kg×2, Ximelagatran 40 mg/kg×2
Method: (§1) The secretagogue overstimulation model of experimental pancreatitis with caerulein, is a commonly used AP model (Zhan et al., Gastrointestinal Liver Physiology, 311:G343-55 (2016)). This model was accomplished by repeated intraperitoneal (ip) injections of caerulein (100 μg/kg/hour) once per hour (Huang et al., Gastroenterology, 144:202-10 (2013)).
A PACE-activated trypsinogen model in which the original enteropeptidase cleavage site (DDDDK) was replaced by a PACE cleavage site (RTKR), using site-specific mutagenesis of the wild type rat trypsinogen cDNA, was produced (Ji et al., J. Biol. Chem., 284:17488-98 (2009)). PACE, paired basic amino acid cleaving enzyme (also called furin), is a mammalian propeptide-processing endoprotease that is present in the trans-Golgi network of virtually all cells. To target expression of PACE-trypsinogen specifically to pancreatic acinar cells, conditional LGL (loxP-GFP-stop-loxP)-PACE-trypsinogen transgenic mice were bred with full-length, acinar specific, elastase promoter-regulated Cre transgenic mice. […]
(§2) Pancreas edema, serum amylase, and histology were evaluated as described elsewhere (Gaiser et al., Gut, 60:1379-88 (2011); Huang et al., Gastroenterology, 144:202-10 (2013); and Daniluk et al., J. Clin. Invest., 122:1519-28 (2012)). […]

PRSS1R122H mice [1] = assay: Therapeutic administration after AP induction in PRSS1R122H mice, progression to chronic pancreatitis; assay type: in vivo, mouse; conditions: administered four hours after AP induction by caerulein, treated for additional five days, Dabigatran 200 mg/kg Bid, Camostat 300 mg/kg Bid
Method: as §1
A model of human hereditary pancreatitis (HP) was developed by using a bacterial artificial chromosome (BAC, clone RP11-701D14) harboring the full-length human PRSS1 gene containing an intact PRSS1 promoter, all exons and introns, and the 3′ untranslated region for faithful recapitulation of the gene's expression. An R122H point mutation was introduced by two rounds of genetic targeting using Galk-mediated recombineering (PRSS1^R122H) (Warming et al., Nucleic Acids Research, 33:e36 (2005)). This transgene expressed PRSS1^R122H at ˜50% of the endogenous human PRSS1 protein level as detected by Western blot (WB) and real-time RT-PCR. […]
as §2

WT mice = assay: Prevention of caerulein-induced acute pancreatitis in WT mice; assay type: in vivo, mouse; conditions: evaluated 24 h after first caerulein dose, Dabigatran 200 mg/kg×2, Camostat 300 mg/kg×2
Method: as §1
Camostat mesilate (Santa Cruz), Dabigatran etexilate mesylate (a prodrug for Dabigatran, TRC Canada), and Ximelagatran (a prodrug for Melagatran, Sigma-Aldrich) were dissolved in 10% β-Cyclodextrin (Sigma-Aldrich). […]
Pancreas edema, serum amylase, and histology were evaluated as described elsewhere (Gaiser et al., Gut, 60:1379-88 (2011); Huang et al., Gastroenterology, 144:202-10 (2013); and Daniluk et al., J. Clin. Invest., 122:1519-28 (2012)).
The effect of Dabigatran on experimental pancreatitis in WT mice was evaluated. Dabigatran and Camostat were administrated by oral gavage two hours before the initiation of AP by six hourly injections of caerulein (FIG. 1A). Twenty-four hours after the first dose of caerulein, the severity of pancreatitis was evaluated.

PRSS1R122H mice [2] = assay: Prevention of caerulein-induced pancreatitis in mouse model of human hereditary pancreatitis (PRSS1R122H); assay type: in vivo; conditions: Dabigatran 200 mg/kg×2, Camostat 300 mg/kg×2
Method: as §1
A model of human hereditary pancreatitis (HP) was developed by using a bacterial artificial chromosome (BAC, clone RP11-701D14) harboring the full-length human PRSS1 gene containing an intact PRSS1 promoter, all exons and introns, and the 3′ untranslated region for faithful recapitulation of the gene's expression. An R122H point mutation was introduced by two rounds of genetic targeting using Galk-mediated recombineering (PRSS1^R122H) (Warming et al., Nucleic Acids Research, 33:e36 (2005)). This transgene expressed PRSS1^R122H at ˜50% of the endogenous human PRSS1 protein level as detected by Western blot (WB) and real-time RT-PCR. Taking into account that the PRSS1^R122H mutation was heterozygous, and that mutated PRSS1 constituted 50% of the total PRSS1 in human HP, this model does expressPRSS1^R122H at a physiologically relevant level. In this mouse model, spontaneous AP and CP were not observed. However, these mice developed more severe AP following the induction of AP with caerulein injection. More importantly, all of the PRSS1^R122H mice, but none of the WT mice, developed CP with an observed histopathology similar to that seen in human HP (Singhi et al., Am. J. Surg. Path., 38:346-53 (2014)). Therefore, this model faithfully recapitulates the histological changes observed during human HP (Singhi et al., Am. J. Surg. Path., 38:346-53 (2014)). […]
as §2

[3] = tested on: human having pancreatitis; assay: Treating a human identified as having pancreatitis (Example 2); assay type: in vivo; conditions: 112 mg dabigatran or 150 mg dabigatran etexilate at least twice a day for one to three weeks
Method: A human identified as having pancreatitis is administered 112 mg of dabigatran or 150 mg of dabigatran etexilate at least twice a day for one to three weeks.

Compound | development of severe AP (pancreas edema, serum amylase) (mutant trypsinogen mice) | progression of AP to CP (pancreas/body weight ratio, histology) (PRSS1R122H mice [1]) | pancreatic edema (pancreas/body weight ratio) (WT mice; oral gavage two hours before six hourly caerulein injections (100 μg/kg×6)) | serum amylase levels (WT mice; oral gavage two hours before six hourly caerulein injections) | pancreatic edema (pancreas/body weight ratio) (PRSS1R122H mice [2]; pretreatment before caerulein (100 μg/kg×6)) | pancreatic histology (PRSS1R122H mice [2]; pretreatment before caerulein) | serum amylase levels (PRSS1R122H mice [2]; pretreatment before caerulein) | severity of the pancreatitis [3]
CN(C)C(=O)COC(=O)Cc1ccc(OC(=O)c2ccc(NC(=N)N)cc2)cc1 [Camostat, Camostat mesilate] | no ability to prevent the development of severe AP | no positive effects on preventing the development of CP | moderately reduce | no significant effect | only slightly improved | only slightly improved | only slightly improved | 
CCCCCCOC(=O)N=C(N)c1ccc(NCc2nc3cc(C(=O)N(CCC(=O)OCC)c4ccccn4)ccc3n2C)cc1 [dabigatran etexilate] |  |  |  |  |  |  |  | reduction in the severity of the pancreatitis

— US20180369219A1, “USING DABIGATRAN TO TREAT PANCREATITIS” (Mayo Foundation for Medical Education and Research, priority 2017, published 2018)
